# Test results: patent publication US20250255867A1 (Kadmon Corporation, LLC, priority 2022, published 2025)
# Experiments:
# patients with cGVHD [1] = experiment: Example 1: time to next therapy, failure-free survival, overall survival; assay type: in vivo, human
# Description: Time to next therapy (TTNT). The TTNT was defined as the time (in months) from first treatment to the time of new systemic cGVHD treatment. TTNT was censored by last response assessment or long term follow up assessment, whichever was earlier. Kaplan-Meier survival method was used for the analysis. […] Analysis was performed on mITT population.
# Failure-free survival was defined as the time (in months) from first dose of study drug to either the start of another new systemic treatment for cGVHD, relapse of the underlying disease or death. If no such events happened, FFS was censored by last response assessment or long term follow up assessment, whichever was the latest and available. Kaplan-Meier survival method was used for the analysis. Analysis was performed on mITT population.
# Overall survival was defined as the time (in months) from first dose of study drug to the death due to any reason. If there was no death, OS was censored by last visit, last long term follow-up, or study cutoff date, whichever was the latest. Kaplan-Meier survival method was used for the analysis.
# patients with cGVHD [2] = experiment: Example 1: corticosteroid and calcineurin inhibitor sparing; assay type: in vivo, human; conditions: for Participants who discontinued CNI, number / Participants who discontinued CNI, percent / Participants with reduction in CNI dose, number / Participants with reduction in CNI dose, percent: baseline up to EOT
# Description: Corticosteroid sparing. […] The mean corticosteroid dose was reduced by 45%. The median time to corticosteroid therapy discontinuation was 29 weeks (range, 8-77 weeks).
# Change from Baseline in Corticosteroids Dose. An EOT visit was performed within 3 days after the participant's last dose of study drug. Baseline value was defined as valid and last non-missing value obtained within 28 days prior to participant receiving first study medication. The mITT population was analyzed, with the ‘overall number of participants analyzed’=participants with available data for this outcome measure.
# Change from Baseline in Calcineurin Inhibitor (CNI). Calcineurin inhibitors included systemic tacrolimus and cyclosporine. Number of participants who took CNI at Baseline and had reduction and discontinuation in CNI use as compared to Baseline during the study are reported in this outcome measure. EOT visit was performed within 3 days after the participant's last dose of study drug. Baseline value was defined as valid and last non-missing value obtained within 28 days prior to participant receiving first study medication.
# subjects with cGVHD = experiment: Example 2 phase II randomized study: cGVHD response per 2014 NIH Consensus Criteria (best ORR, organ ORR, DOR, time to response); assay type: in vivo, human; conditions: for Best ORR: mITT
# Description: All responses were assessed by the study site investigators.
# [3] = Example 3: respiratory infections and overall survival; assay type: in vivo
# Text: The median age at enrollment was 42.5 years (range, 26-77). Allogeneic HCT was predominantly performed with myeloablative conditioning (n=44, 75%) and peripheral blood stem cells (n=54, 92%) from an HLA-matched donor (n=53, 90%). The median time from cGVHD diagnosis to enrollment was 22 months (range, 1-161). […] Most subjects (n=39, 66%) had at least 4 organs involved at enrollment. The median number of prior lines of systemic therapy was 3 (range, 1-6). Overall cGVHD response to the line of systemic therapy prior to enrollment was partial response (n=12, 20%), stable disease (n=25, 42%), progressive disease (n=12, 20%) or unknown (n=10, 17%). […] At the time of analysis, 16 subjects remained on therapy. […] Thirty-one subjects (53%) experienced at least 1 respiratory infection (any grade) while on treatment, with 11 subjects experiencing 32 episodes. These infections were categorized as upper respiratory infections (n=33) or pneumonia (n=13). […] With a median follow-up among survivors of 27 months (range, 1.8-55), the 2-year overall survival is 82% (95% CI: 70, 90).
# [4] = Total N=54, listed as belumosudil
# [5] = 200 mg BID (n = 66), 42 with organ involved
# [6] = 200 mg BID (n = 66), 49 with organ involved
# [7] = 200 mg QD (n = 66), 19 with organ involved
# [8] = 200 mg daily (n = 66), mITT population
# [9] = 200 mg twice daily (n = 66), mITT population
# [10] = Total (N = 132), 100 with organ involved
# [11] = Total (N = 132), mITT population
smiles,measurement,setting,value
"CC(C)NC(=O)COc1cccc(-c2nc(Nc3ccc4[nH]ncc4c3)c3ccccc3n2)c1 [Belumosudil, 2-{3-[4-(1H-indazol-5-ylamino)-2-quinazolinyl]phenoxy}-N-(propan-2-yl) acetamide]",FFS rate at 6 months,patients with cGVHD [1],76%
same,FFS rate at 12 months,patients with cGVHD [1],47%
same,CS discontinuation,patients with cGVHD [2]; Cohort 1 200 mg QD,"4 (24, 7 to 50) %"
same,"Mean percent change in CS dose from baseline, nonresponder",patients with cGVHD [2]; Cohort 1 200 mg QD,−26%
same,"Mean percent change in CS dose from baseline, overall",patients with cGVHD [2]; Cohort 1 200 mg QD,−50%
same,"Mean percent change in CS dose from baseline, responder",patients with cGVHD [2]; Cohort 1 200 mg QD,−63%
same,Proportion with CS reduction,patients with cGVHD [2]; Cohort 1 200 mg QD,"13 (76, 50 to %"
same,"Change From Baseline in Corticosteroids Dose, Mean (Standard Deviation)","patients with cGVHD [2]; Cohort 1 200 mg QD, baseline to end of treatment",−0.110 (0.101) milligrams per kilogram per day
same,"Participants who discontinued CNI, number",patients with cGVHD [2]; Cohort 1: 200 mg QD,0
same,"Participants who discontinued CNI, percent",patients with cGVHD [2]; Cohort 1: 200 mg QD,(0%)
same,"Participants with reduction in CNI dose, number",patients with cGVHD [2]; Cohort 1: 200 mg QD,5
same,"Participants with reduction in CNI dose, percent",patients with cGVHD [2]; Cohort 1: 200 mg QD,(83%)
same,CS discontinuation,patients with cGVHD [2]; Cohort 2 200 mg BID,"2 (13, 2 to 38) %"
same,"Mean percent change in CS dose from baseline, nonresponder",patients with cGVHD [2]; Cohort 2 200 mg BID,−37%
same,"Mean percent change in CS dose from baseline, overall",patients with cGVHD [2]; Cohort 2 200 mg BID,−36%
same,"Mean percent change in CS dose from baseline, responder",patients with cGVHD [2]; Cohort 2 200 mg BID,−36%
same,Proportion with CS reduction,patients with cGVHD [2]; Cohort 2 200 mg BID,"9 (56, 30 to 80) %"
same,"Participants who discontinued CNI, number",patients with cGVHD [2]; Cohort 2: 200 mg BID,1
same,"Participants who discontinued CNI, percent",patients with cGVHD [2]; Cohort 2: 200 mg BID,17%
same,"Participants with reduction in CNI dose, number",patients with cGVHD [2]; Cohort 2: 200 mg BID,5
same,"Participants with reduction in CNI dose, percent",patients with cGVHD [2]; Cohort 2: 200 mg BID,83%
same,CS discontinuation,patients with cGVHD [2]; Cohort 3 400 mg QD,"4 (19, 5 to 42) %"
same,"Mean percent change in CS dose from baseline, nonresponder",patients with cGVHD [2]; Cohort 3 400 mg QD,−19%
same,"Mean percent change in CS dose from baseline, overall",patients with cGVHD [2]; Cohort 3 400 mg QD,−47%
same,"Mean percent change in CS dose from baseline, responder",patients with cGVHD [2]; Cohort 3 400 mg QD,−63%
same,Proportion with CS reduction,patients with cGVHD [2]; Cohort 3 400 mg QD,"14 (67, 43 to %"
same,"Participants who discontinued CNI, number",patients with cGVHD [2]; Cohort 3: 400 mg QD,3
same,"Participants who discontinued CNI, percent",patients with cGVHD [2]; Cohort 3: 400 mg QD,27%
same,"Participants with reduction in CNI dose, number",patients with cGVHD [2]; Cohort 3: 400 mg QD,6
same,"Participants with reduction in CNI dose, percent",patients with cGVHD [2]; Cohort 3: 400 mg QD,55%
same,"Mean percent change in CS dose from baseline, nonresponder",patients with cGVHD [2]; Total,−26%
same,"Mean percent change in CS dose from baseline, overall",patients with cGVHD [2]; Total,−45%
same,"Mean percent change in CS dose from baseline, responder",patients with cGVHD [2]; Total,−55%
same,CS discontinuation,patients with cGVHD [2]; Total N=54,Approximately 20%
same,CS discontinuation,"patients with cGVHD [2]; Total N=54, listed as KD025","10 (19, 9 to 31) %"
same,Proportion with CS reduction,"patients with cGVHD [2]; Total N=54, listed as KD025","36 (67, 53 to %"
same,CS discontinuation,patients with cGVHD [2]; [4],19%
same,Proportion with CS reduction,patients with cGVHD [2]; [4],67%
same,Mean corticosteroid dose reduction,patients with cGVHD [2]; all patients,45%
same,Mean corticosteroid dose reduction,patients with cGVHD [2]; nonresponders,26%
same,Median time to corticosteroid therapy discontinuation,"patients with cGVHD [2]; range, 8-77 weeks",29 weeks
same,Mean corticosteroid dose reduction,patients with cGVHD [2]; responders,55%
same,"PR, Liver","subjects with cGVHD; 200 mg BID (n = 66), 4 with organ involved",0 n (%)
same,"PR, Upper GI","subjects with cGVHD; 200 mg BID (n = 66), 10 with organ involved",0 n (%)
same,"PR, Esophagus","subjects with cGVHD; 200 mg BID (n = 66), 12 with organ involved",0 n (%)
same,"CR, Mouth",subjects with cGVHD; [5],17 (41) n (%)
same,"ORR, Mouth",subjects with cGVHD; [5],24 (57) n (%)
same,"CR, Eyes",subjects with cGVHD; [6],6 (12) n (%)
same,"ORR, Joints and fascia",subjects with cGVHD; [6],33 (67) n (%)
same,"PR, Skin","subjects with cGVHD; 200 mg BID (n = 66), 55 with organ involved",13 (24) n (%)
same,"PR, Lower GI","subjects with cGVHD; 200 mg QD (n = 66), 6 with organ involved",0 n (%)
same,"ORR, Upper GI","subjects with cGVHD; 200 mg QD (n = 66), 13 with organ involved",8 (62) n (%)
same,"CR, Esophagus",subjects with cGVHD; [7],9 (47) n (%)
same,"PR, Esophagus",subjects with cGVHD; [7],0 n (%)
same,"CR, responses occurring within 6 mo of treatment",subjects with cGVHD; [8],2 (3) n (%)
same,"CR, responses occurring within 12 mo of treatment",subjects with cGVHD; [8],4 (6) n (%)
same,ORR for responses occurring within 6 mo of treatment,subjects with cGVHD; [8],47 (71) n (%)
same,Best ORR,subjects with cGVHD; 200 mg daily,74%
same,"CR, responses occurring within 6 mo of treatment",subjects with cGVHD; [9],1 (2) n (%)
same,"CR, responses occurring within 12 mo of treatment",subjects with cGVHD; [9],2 (3) n (%)
same,ORR,subjects with cGVHD; [9],51 (77) n (%)
same,ORR for responses occurring within 12 mo of treatment,subjects with cGVHD; [9],50 (76) n (%)
same,"PR, responses occurring within 6 mo of treatment",subjects with cGVHD; [9],47 (71) n (%)
same,"PR, responses occurring within 12 mo of treatment",subjects with cGVHD; [9],48 (73) n (%)
same,Best ORR,subjects with cGVHD; 200 mg twice daily,77%
same,"Median increase in FEV1, lung CR based on normalization of FEV1","subjects with cGVHD; 3 subjects, range, 18-25",23%
same,"PR, Esophagus","subjects with cGVHD; Total (N = 132), 31 with organ involved",0 n (%)
same,"CR, Eyes","subjects with cGVHD; Total (N = 132), 97 with organ involved",14 (14) n (%)
same,"CR, Joints and fascia",subjects with cGVHD; [10],20 (20) n (%)
same,"ORR, Joints and fascia",subjects with cGVHD; [10],71 (71) n (%)
same,"PR, Joints and fascia",subjects with cGVHD; [10],51 (51) n (%)
same,"CR, Skin","subjects with cGVHD; Total (N = 132), 110 with organ involved",18 (16) n (%)
same,"CR, responses occurring within 6 mo of treatment",subjects with cGVHD; [11],3 (2) n (%)
same,"CR, responses occurring within 12 mo of treatment",subjects with cGVHD; [11],6 (5) n (%)
same,"PR, responses occurring within 6 mo of treatment",subjects with cGVHD; [11],92 (70) n (%)
same,"PR, responses occurring within 12 mo of treatment",subjects with cGVHD; [11],93 (71) n (%)
same,Best ORR in subjects refractory to their last lines of therapy,subjects with cGVHD; in vivo,75%
same,"ORR, prior ruxolitinib therapy subgroup","subjects with cGVHD; pooled arms, n=38",68%
same,"ORR, prior ibrutinib therapy subgroup","subjects with cGVHD; pooled arms, n=46",74%
same,"Median increase in FEV1, all subjects achieving lung PR","subjects with cGVHD; range, 0-15",10%
same,Overall median time to response,"subjects with cGVHD; range, 4-66",5 weeks
same,Median DOR,subjects with cGVHD; responder population,54 weeks
same,Subjects with at least 1 respiratory infection (any grade) on treatment,[3]; 59 BOS subjects,53%
same,2-year overall survival,"[3]; 95% CI: 70, 90",82%
